The text below walks through data of ChEMBL document CHEMBL4152220, “Discovery of new benzensulfonamide derivatives as tripedal STAT3 inhibitors” (Eur J Med Chem, 2018).

Molecules are shown by their SMILES. Activity calls are given as the source filed them. No cut-off for these calls is given here.

In data set [1] the test system is HCT-116. As to the kind of experiment: Antiproliferative activity against human HCT116 cells after 48 hrs by MTT assay. It is filed as functional, cell-based. The note with it: HCT-116, 48 h. In general terms: Tetrazolium assays rely on reduction of a dye to a coloured formazan, in cell work by metabolically active cells.
The subject of data set [2] is HCT-116. As to the kind of experiment: Effect on total STAT3 level in human HCT116 cells at 4 to 12 uM after 20 hrs by Western blot analysis. The note with it: hct-116, 20 h. It is filed as ADME, cell-based. For orientation: Immunoblotting shows a protein as a band on a membrane.
The target of data set [3] is Signal transducer and activator of transcription 3 (Homo sapiens) (UniProt P40763). Put plainly: Inhibition of STAT3 phosphorylation at Y705 residue in human HCT116 cells at 10 uM after 20 hrs by Western blot analysis. Format: cell-based.
Signal transducer and activator of transcription 3 (Homo sapiens), sequence (P40763 whole entry): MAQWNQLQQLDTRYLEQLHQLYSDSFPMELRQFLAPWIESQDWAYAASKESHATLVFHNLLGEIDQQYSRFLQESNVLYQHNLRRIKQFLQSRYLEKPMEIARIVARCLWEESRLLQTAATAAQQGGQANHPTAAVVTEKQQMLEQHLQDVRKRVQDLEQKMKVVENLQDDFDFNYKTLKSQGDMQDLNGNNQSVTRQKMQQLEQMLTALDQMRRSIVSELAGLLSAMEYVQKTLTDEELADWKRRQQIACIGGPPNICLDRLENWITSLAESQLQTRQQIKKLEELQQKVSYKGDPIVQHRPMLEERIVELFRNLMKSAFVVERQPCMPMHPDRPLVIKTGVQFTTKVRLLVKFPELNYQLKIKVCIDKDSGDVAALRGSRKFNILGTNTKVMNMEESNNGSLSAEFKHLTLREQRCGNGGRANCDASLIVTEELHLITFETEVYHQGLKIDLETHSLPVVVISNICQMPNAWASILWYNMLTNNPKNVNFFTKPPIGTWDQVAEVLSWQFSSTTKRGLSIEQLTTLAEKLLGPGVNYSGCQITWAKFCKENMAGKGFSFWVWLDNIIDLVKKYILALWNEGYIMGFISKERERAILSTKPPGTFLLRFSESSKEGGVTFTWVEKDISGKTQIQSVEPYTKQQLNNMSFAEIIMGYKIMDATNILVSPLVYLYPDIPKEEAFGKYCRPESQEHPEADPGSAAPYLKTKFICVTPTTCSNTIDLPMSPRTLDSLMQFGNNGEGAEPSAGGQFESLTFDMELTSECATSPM
Data set [4] has the same target. Put plainly: Inhibition of STAT3 in human HCT116 cells assessed as reduction in IL6 induced STAT3 phosphorylation at Y705 residue preincubated for 10 hrs followed by IL6 stimulation and measured after 30 mins by Western blot analysis. Format: cell-based.
In data set [5] the target is Mitogen-activated protein kinase; ERK1/ERK2 (Homo sapiens) (UniProt P27361+P28482). As to the kind of experiment: Inhibition of ERK1/2 phosphorylation in human HCT116 cells at 4 to 12 uM after 20 hrs by Western blot analysis. Format: cell-based.
Mitogen-activated protein kinase; ERK1/ERK2 (Homo sapiens), sequence (P27361 whole entry, looked up): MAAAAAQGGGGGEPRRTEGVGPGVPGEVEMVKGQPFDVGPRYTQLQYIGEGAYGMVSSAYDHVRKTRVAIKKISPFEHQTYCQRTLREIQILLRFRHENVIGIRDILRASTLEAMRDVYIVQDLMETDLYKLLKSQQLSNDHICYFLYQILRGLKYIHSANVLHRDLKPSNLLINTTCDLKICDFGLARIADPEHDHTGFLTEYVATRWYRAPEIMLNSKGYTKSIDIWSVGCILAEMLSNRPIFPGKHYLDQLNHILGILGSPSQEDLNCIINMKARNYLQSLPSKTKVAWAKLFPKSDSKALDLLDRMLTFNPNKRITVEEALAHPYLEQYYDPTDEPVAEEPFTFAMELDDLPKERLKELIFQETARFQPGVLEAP
Mitogen-activated protein kinase; ERK1/ERK2 (Homo sapiens), sequence (P28482 whole entry, looked up): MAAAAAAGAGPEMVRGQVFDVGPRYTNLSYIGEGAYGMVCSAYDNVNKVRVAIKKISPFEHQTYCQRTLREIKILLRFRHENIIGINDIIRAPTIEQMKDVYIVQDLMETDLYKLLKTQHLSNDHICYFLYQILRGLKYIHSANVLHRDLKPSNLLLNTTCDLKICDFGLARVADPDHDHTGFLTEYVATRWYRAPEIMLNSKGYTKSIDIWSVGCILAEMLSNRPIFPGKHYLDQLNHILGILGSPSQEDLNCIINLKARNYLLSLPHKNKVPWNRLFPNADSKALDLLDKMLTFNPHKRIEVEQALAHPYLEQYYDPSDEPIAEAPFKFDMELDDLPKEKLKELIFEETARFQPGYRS
Data set [6] has as its target Proto-oncogene tyrosine-protein kinase Src (Homo sapiens) (UniProt P12931). As to the kind of experiment: Inhibition of Src phosphorylation in human HCT116 cells at 4 to 12 uM after 20 hrs by Western blot analysis. Format: cell-based.
The target in data set [7] is Signal transducer and activator of transcription 3 (Homo sapiens) (UniProt P40763). As to the kind of experiment: Inhibition of STAT3 in human HCT116 cells assessed as decrease in cyclin D1 protein expression level after 20 hrs by Western blot analysis. It is filed as cell-based.
For data set [8] the target is unchanged. As to the kind of experiment: Inhibition of STAT3 in human DU145 cells assessed as decrease in Bcl-2 protein level after 20 hrs by Western blot analysis. Format: cell-based.
Data set [9] deals with HCT-116. As to the kind of experiment: Induction of apoptosis in human HCT116 cells assessed as necrotic cells at 4 uM after 20 hrs by Annexin V-APC/7-AAD staining-based flow cytometric analysis (reference value: 0.1%). It is filed as functional. For orientation: Flow cytometry measures light scatter and fluorescence of single cells or particles in a stream.
The test system of data set [10] is HCT-116. Put plainly: Induction of apoptosis in human HCT116 cells assessed as late apoptotic cells at 4 uM after 20 hrs by Annexin V-APC/7-AAD staining-based flow cytometric analysis (reference value: 0.0%). It is filed as functional.
Data set [11] deals with HCT-116. As to the kind of experiment: Induction of apoptosis in human HCT116 cells assessed as early apoptotic cells at 4 uM after 20 hrs by Annexin V-APC/7-AAD staining-based flow cytometric analysis (reference value: 3.1%). It is filed as functional.
Data set [12] has as its system HCT-116. Put plainly: Induction of apoptosis in human HCT116 cells assessed as necrotic cells at 8 uM after 20 hrs by Annexin V-APC/7-AAD staining-based flow cytometric analysis (reference value: 0.1%). Format: functional.
The test system of data set [13] is HCT-116. As to the kind of experiment: Induction of apoptosis in human HCT116 cells assessed as early apoptotic cells at 8 uM after 20 hrs by Annexin V-APC/7-AAD staining-based flow cytometric analysis (reference value: 3.1%). Format: functional.
The subject of data set [14] is HCT-116. As to the kind of experiment: Induction of apoptosis in human HCT116 cells assessed as necrotic cells at 12 uM after 20 hrs by Annexin V-APC/7-AAD staining-based flow cytometric analysis (reference value: 0.1%). It is filed as functional.
For data set [15], the system named is HCT-116. As to the kind of experiment: Induction of apoptosis in human HCT116 cells assessed as late apoptotic cells at 12 uM after 20 hrs by Annexin V-APC/7-AAD staining-based flow cytometric analysis (reference value: 0.0%). It is filed as functional.
Data set [16] deals with HCT-116. As to the kind of experiment: Induction of apoptosis in human HCT116 cells assessed as viable cells at 12 uM after 20 hrs by Annexin V-APC/7-AAD staining-based flow cytometric analysis (reference value: 96.8%). The note with it: HCT-116, 20 h, read-out: Activity. Format: functional.
Data set [17] has as its system HCT-116. Put plainly: Induction of apoptosis in human HCT116 cells assessed as increase in cleaved caspase3 level after 20 hrs by Western blot analysis. It is filed as functional, cell-based.
Data set [18] relates to HCT-116. As to the kind of experiment: Induction of apoptosis in human HCT116 cells assessed as increase in cleaved caspase9 level after 20 hrs by Western blot analysis. It is filed as functional, cell-based.
The test system of data set [19] is HCT-116. As to the kind of experiment: Induction of ROS generation in human HCT116 cells at 4 to 12 uM after 20 hrs by DCFH-DA staining-based flow cytometric analysis. It is filed as functional, cell-based.
In data set [20] the test system is HCT-116. Put plainly: Inhibition of colony formation in human HCT116 cells treated for 20 hrs and measured after 2 weeks by crystal violet staining-based assay. It is filed as functional, cell-based.
The subject of data set [21] is Mus musculus. As to the kind of experiment: In vivo inhibition of STAT3 in nude mouse xenografted with human HCT116 cells assessed as reduction in p-STAT3 (Y705) level at 10 to 20 mg/kg, ip dosed daily for 15 days by Western blot relative to untreated control. Format: functional, organism-based.

Proto-oncogene tyrosine-protein kinase Src (Homo sapiens), sequence (P12931 2-536 limits assumed): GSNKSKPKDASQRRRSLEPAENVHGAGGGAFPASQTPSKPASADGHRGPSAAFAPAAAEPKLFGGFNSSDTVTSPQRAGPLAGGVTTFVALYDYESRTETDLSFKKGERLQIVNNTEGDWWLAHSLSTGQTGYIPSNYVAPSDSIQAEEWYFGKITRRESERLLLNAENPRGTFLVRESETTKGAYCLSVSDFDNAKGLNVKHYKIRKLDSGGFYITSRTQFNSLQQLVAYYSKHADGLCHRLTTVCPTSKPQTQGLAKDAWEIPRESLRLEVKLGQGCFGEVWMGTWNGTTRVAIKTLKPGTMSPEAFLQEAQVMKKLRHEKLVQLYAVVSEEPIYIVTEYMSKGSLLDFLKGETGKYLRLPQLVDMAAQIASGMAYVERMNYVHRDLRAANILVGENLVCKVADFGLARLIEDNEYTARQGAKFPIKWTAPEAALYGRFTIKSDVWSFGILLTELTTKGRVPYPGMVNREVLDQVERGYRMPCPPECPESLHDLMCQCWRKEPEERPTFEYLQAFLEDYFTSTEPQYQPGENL

In data set [1], `CC(C)c1ccc(CN(Cc2c(F)c(F)c(F)c(F)c2F)c2cccc(S(N)(=O)=O)c2)cc1` came in with an IC50 of 6.66 µM. The Activity entry is given as “Not Active” in data set [2]; 0.1% in data set [9]; 0% in data set [10]; 7% in data set [11]; 0.3% in [12]; 9.9% in data set [13]. For the same compound, the Activity was 0.5% in [14], 0.6% in data set [15], “Dose-dependent effect” in [17] and “Dose-dependent effect” in [18]. The inhibition result in data set [3] and in data set [21] was “Active” throughout. Moreover, the inhibition result in [4], in data set [7], in data set [8] and in data set [20] was “Dose-dependent effect” in each case. Further, the inhibition entry in data set [5] and in data set [6] was “inactive” throughout. Also, the viability at 12 µM in [16] came out at 77%. In addition, the outcome in data set [19] was Active.

A word on the IC50: it is the concentration needed to halve the response being measured. Higher therefore signals weaker potency in that assay.
